US8623995B2, “Peptide conjugates and fluorescence detection methods for intracellular caspase assay” (Applied Biosystems, LLC, priority 2001, dated 2014)
Each block holds one compound with its values, some of them ahead of it. The star is where a group is joined. Cbz = O=C(OCc1ccccc1)*; CH2F = FC*

Columns and labels:
caspase = molecular target: T1, caspase (Homo sapiens, UniProt P42574); assay: Intracellular caspase assay on FMAT 8100: caspase inhibitors on cleavage of peptide conjugate 9 in NT-2 cells; format: cell-based; settings: inhibitor at 50 μM, NT-2 cells with CMP to induce apoptosis (FIG. 10)
T1 construct: endogenous in cells; host or cells: NT-2 cells
T1 sequence (P42574 29-175 limits assumed): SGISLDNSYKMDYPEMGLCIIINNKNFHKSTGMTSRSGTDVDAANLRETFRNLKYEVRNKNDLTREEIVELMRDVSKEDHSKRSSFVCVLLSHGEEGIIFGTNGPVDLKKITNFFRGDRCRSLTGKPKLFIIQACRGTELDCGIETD
T1 sequence (P42574 176-277 limits assumed): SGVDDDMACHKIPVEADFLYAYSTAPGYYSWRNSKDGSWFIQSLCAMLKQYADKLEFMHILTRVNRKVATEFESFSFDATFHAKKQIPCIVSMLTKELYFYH
Procedure: (§1) One method for introducing the peptide conjugates into cells to induce apoptosis and measure caspase activity includes the following steps: • 1. […] The cells will adhere to well bottoms in 1 to 24 hours. Any number of different sample cells or any combination of cells, inhibitors or apoptosis inducers can be assayed. Typically 10,000 cells per well are plated in about 100 μl of tissue culture media. • 2. Add an apoptosis inducer, e.g. camptothecin or staurosporine, dissolved in media and/or solvent. Different concentrations can be used to study dose-response. • 3. Let the cells stand for about 24 hours at 37° C., depending on the inducer. • 4. […] Let stand for about 90 minutes at 37° C. • 5. Transfer plates to a fluorescent plate reading device, cell sorter, flow cytometer, laser imager, microscope, or other device and read the content of the wells.
The plate was incubated at 37° C. for 90 minutes.

NT-2 cells = assay: Intracellular caspase assay on FMAT 8100 HTS System with peptide conjugate 9: apoptosis induction; format: cell-based, Human
Procedure: One method for introducing the peptide conjugates into cells to induce apoptosis and measure caspase activity includes the following steps: • 1. Plate the eukaryotic cells in RPMI 1640 media in the wells of a tissue culture-treated 96-well plate at 37° C. The cells will adhere to well bottoms in 1 to 24 hours. Any number of different sample cells or any combination of cells, inhibitors or apoptosis inducers can be assayed. Typically 10,000 cells per well are plated in about 100 μl of tissue culture media. • 2. Add an apoptosis inducer, e.g. camptothecin or staurosporine, dissolved in media and/or solvent. Different concentrations can be used to study dose-response. • 3. Let the cells stand for about 24 hours at 37° C., depending on the inducer. • 4. Add the peptide conjugate, dissolved in media and/or solvent in a range of 1 to 10 μM, e.g. 2.5 μM, to every well, including controls. Let stand for about 90 minutes at 37° C. • 5. Transfer plates to a fluorescent plate reading device, cell sorter, flow cytometer, laser imager, microscope, or other device and read the content of the wells.
(§2) A data spreadsheet assigns numerical values of fluorescence intensity and peak heights. The greyscale image has intensity content, like an autoradiogram. […] The cells are simply counted by a cell counting algorithm as either blue or red depending on the ratio of channel 2 to channel 1 fluorescence intensity, and independent of intensity values. The fraction of apoptotic cells is determined by identifying the apoptotic population in each well and dividing by the total number of cells detected. The ratio of red (channel 2) to blue (channel 1) inversely correlates to the apoptotic fraction. In other words:
[formula] […] Effects of introducing apoptosis inducers and caspase inhibitors to different cells under variable conditions can thus be measured by the mix-and-read protocols on the FMAT 8100 System. A dose response is determined when this fraction (% apoptotic) is plotted as a function of the concentration of camptothecin in the well (FIG. 11), and other apoptosis inducers (FIGS. 12 and 13). […]

Jurkat cells = assay: Intracellular caspase assay with peptide conjugate 9: apoptosis induction; format: cell-based, Human; settings: peptide conjugate 9 (FIG. 13)
Procedure: as §1
as §2, with “The ratio of red (channel 2) to blue (channel 1) inversely correlates to the apoptotic fraction. In other words:” left out

HeLa cells = assay: as above; format: cell-based, Human; settings: peptide conjugate 9 (FIG. 13)
Procedure: as §1
as §2, with “The ratio of red (channel 2) to blue (channel 1) inversely correlates to the apoptotic fraction. In other words:” left out

Suppression of cleavage of peptide conjugate 9 (caspase): complete suppression
Compound: Cbz-Val-Ala-Asp-CH2F

Compound: CC[C@@]1(O)C(=O)OCc2c1cc1n(c2=O)Cc2cc3ccccc3nc2-1 [camptothecin]
Induction of apoptosis / caspase activity (donor dye emission, channel 1) (NT-2 cells; 500 nM, peptide conjugate 9 (FIG. 9)): caspase activity is evident
Dose response: fraction of apoptotic cells (NT-2 cells; 0.0001 to 10 μM, 24 hours, peptide conjugate 9 (FIG. 11)): fraction of apoptotic cells correlates with camptothecin concentration

Compound: COc1cccc2c1C(=O)c1c(O)c3c(c(O)c1C2=O)C[C@@](O)(C(=O)CO)C[C@@H]3O[C@H]1C[C@H](N)[C@H](O)[C@H](C)O1 [doxirubicin]
Concentration above which most of the cells were detected as apoptotic (NT-2 cells; peptide conjugate 9 (FIG. 12)): about 0.1 μM

Compound: CN[C@@H]1C[C@H]2O[C@@](C)([C@@H]1OC)n1c3ccccc3c3c4c(c5c6ccccc6n2c5c31)C(=O)NC4 [staurosporine]
Threshold concentration above which fraction of apoptotic cells correlates with concentration (Jurkat cells): about 0.05 μM
Threshold concentration above which fraction of apoptotic cells correlates with concentration (HeLa cells): ~0.5 µM
